Experimental findings from ChEMBL document CHEMBL1143673, “Benzothiophene selective estrogen receptor modulators with modulated oxidative activity and receptor affinity” (J Med Chem, 2007) are described below.

For assay [1], the target named is T1, Estrogen receptor beta (Homo sapiens, UniProt Q92731). Kind of assay: Displacement of [3H]estradiol from human recombinant ERbeta relative to estradiol. A general note: In a radioligand displacement assay an active substance lowers the binding of a labelled ligand.
The target in assay [2] is T1, Estrogen receptor beta. Briefly: Displacement of [3H]estradiol from human recombinant ERbeta.
The next assay concerns the target T2, Estrogen receptor (Homo sapiens, UniProt P03372).
T2 sequence (P03372 whole entry): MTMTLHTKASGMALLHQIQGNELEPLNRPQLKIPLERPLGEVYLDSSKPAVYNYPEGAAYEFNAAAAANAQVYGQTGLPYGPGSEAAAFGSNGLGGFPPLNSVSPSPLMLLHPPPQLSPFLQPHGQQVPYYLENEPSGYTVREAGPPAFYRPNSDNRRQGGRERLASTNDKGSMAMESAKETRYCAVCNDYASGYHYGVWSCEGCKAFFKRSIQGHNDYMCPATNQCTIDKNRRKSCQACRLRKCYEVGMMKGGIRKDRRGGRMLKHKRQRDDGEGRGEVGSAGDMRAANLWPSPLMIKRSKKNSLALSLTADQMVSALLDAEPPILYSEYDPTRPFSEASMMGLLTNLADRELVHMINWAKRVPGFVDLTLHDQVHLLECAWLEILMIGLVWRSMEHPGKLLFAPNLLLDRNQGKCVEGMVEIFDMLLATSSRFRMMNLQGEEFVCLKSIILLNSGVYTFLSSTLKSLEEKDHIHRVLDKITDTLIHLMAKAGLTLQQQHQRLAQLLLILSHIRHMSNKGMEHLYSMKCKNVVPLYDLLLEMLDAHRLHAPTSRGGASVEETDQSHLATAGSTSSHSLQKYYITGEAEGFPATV

The species named for a further assay is Homo sapiens. Briefly: Selectivity for human ERalpha over human ERbeta.

Some results are limits rather than exact numbers.

T1 sequence (Q92731 whole entry): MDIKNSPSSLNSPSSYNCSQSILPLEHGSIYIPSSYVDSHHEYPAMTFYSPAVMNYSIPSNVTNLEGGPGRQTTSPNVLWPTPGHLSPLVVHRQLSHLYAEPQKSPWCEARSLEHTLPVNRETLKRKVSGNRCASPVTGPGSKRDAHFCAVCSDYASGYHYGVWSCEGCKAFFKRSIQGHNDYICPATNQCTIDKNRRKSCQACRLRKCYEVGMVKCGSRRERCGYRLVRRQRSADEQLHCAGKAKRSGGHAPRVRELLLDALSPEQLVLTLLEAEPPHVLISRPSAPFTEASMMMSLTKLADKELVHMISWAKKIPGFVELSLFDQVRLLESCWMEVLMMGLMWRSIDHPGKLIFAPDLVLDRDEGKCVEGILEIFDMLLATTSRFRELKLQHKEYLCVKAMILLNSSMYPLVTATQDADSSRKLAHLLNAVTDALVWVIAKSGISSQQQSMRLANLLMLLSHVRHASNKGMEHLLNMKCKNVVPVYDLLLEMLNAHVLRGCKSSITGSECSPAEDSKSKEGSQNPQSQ

The term IC50 denotes the concentration at which inhibition is half-maximal. Take `CS(=O)(=O)c1ccc(-c2sc3cc(O)ccc3c2Oc2ccc(OCCN3CCCCC3)cc2)cc1`: the relative binding affinity (RBA) on Estrogen receptor beta [1] came to 0.009. Also, the figures for the IC50 at Estrogen receptor beta [2] and at Estrogen receptor were 1800 nM and 27 nM, respectively. Further, in the assay listed under Homo sapiens, the Ratio turned out to be 79.
Turning to `Oc1ccc2c(Oc3ccc(OCCN4CCCCC4)cc3)c(-c3ccc(Br)cc3)sc2c1`, the relative binding affinity (RBA) on Estrogen receptor beta [1] was 0.25. Also, the IC50 on Estrogen receptor beta [2] worked out at 66.7 nM; on Estrogen receptor, 27 nM. In the assay listed under Homo sapiens, the Ratio stood at 2.8.
Turning to `COc1ccc(-c2sc3cc(O)ccc3c2Oc2ccc(OCCN3CCCCC3)cc2)cc1`, the relative binding affinity (RBA) at Estrogen receptor beta [1] came out at 0.25.
For `Oc1ccc2c(Oc3ccc(OCCN4CCCCC4)cc3)c(-c3ccc(NCCCl)cc3)sc2c1`, on Estrogen receptor beta [1], the relative binding affinity (RBA) is less than 0.01. The values for the IC50 at Estrogen receptor beta [2] and at Estrogen receptor were more than 1600 nM and 35.6 nM, respectively. In the assay listed under Homo sapiens, the Ratio was more than 50.
For `Nc1ccc(-c2sc3cc(O)ccc3c2Oc2ccc(OCCN3CCCCC3)cc2)cc1`, the relative binding affinity (RBA) on Estrogen receptor beta [1] amounted to 0.34. Moreover, the IC50 at Estrogen receptor beta [2] worked out at 48.6 nM; against Estrogen receptor, 19.3 nM. In addition, in the assay listed under Homo sapiens, the Ratio is 2.8.
With `Oc1ccc(-c2sc3cc(O)ccc3c2Oc2ccc(OCCN3CCCCC3)cc2)cc1`, the relative binding affinity (RBA) at Estrogen receptor beta [1] was found to be 1.77. Besides, on Estrogen receptor beta [2], the IC50 stood at 9.6 nM.
Turning to `Oc1ccc2c(Oc3ccc(OCCN4CCCCC4)cc3)c(-c3ccccc3)sc2c1`, the relative binding affinity (RBA) on Estrogen receptor beta [1] was determined as 1. Moreover, the IC50 on Estrogen receptor beta [2] worked out at 16.3 nM; at Estrogen receptor, 10.9 nM. For the same molecule, the Ratio in the assay listed under Homo sapiens is 1.7.
The matching figures for `O=C(CCl)Nc1ccc(-c2sc3cc(O)ccc3c2Oc2ccc(OCCN3CCCCC3)cc2)cc1`: 0.007, 2360 nM, 666 nM and 4.3.
Regarding `Oc1ccc2c(Oc3ccc(OCCN4CCCCC4)cc3)c(-c3ccc(F)cc3)sc2c1`, the relative binding affinity (RBA) at Estrogen receptor beta [1] came to 0.68. In addition, the IC50 on Estrogen receptor beta [2] came out at 27.9 nM; on Estrogen receptor it was 17.2 nM. Further, the Ratio in the assay listed under Homo sapiens amounted to 1.6.
